Assay results: patent US20240033236A1, “METHODS OF TREATING HERPES VIRAL INFECTION WITH 4-PHENYLBUTYRATE (PBA) OR A PHARMACEUTICALLY ACCEPTABLE SALT THEREOF” (THE BOARD OF TRUSTEES OF THE UNIVERSITY OF ILLINOIS, priority 2020, published 2024)
“Also recorded” adds a separate entry of the source.

Experiments:
[1] = tested on: HSV-1 McKrae; assay: Murine HSV-1 encephalitis model (intranasal infection); type: in vivo; conditions: BALB/C mice, intranasal HSV-1 McKrae, compared with untreated
[2] = in vivo, iv; cited from earlier work
[3] = tested on: HSV-1; assay: Plaque assay of HSV-1 infected HCEs treated with ER stress modulators; conditions: 0.1 MOI HSV-1 K26RFP, 24 hpi, tunicamycin, thapsigargin, Brefeldin-A 1 μM, salubrinal 75 μM, PBA 10 mM
Method: Infected cells suspended in 5004 of Opti-MEM prior to sonication using a probe sonication system at 70% amplitude for 30 seconds. Sonicated cell lysates or ocular/vaginal swabs were used as inoculants for a plaque assay to determine the total amount of infectious virus. In a typical experiment, Vero cells were plated at a seating density of 5×10^4 per well in a 24 well plate overnight. Upon confluency, the cell monolayers were washed with PBS and infected samples were overlaid for a period of 2 h at multiple dilutions. The cells were then washed twice with PBS prior to the addition of DMEM mixed with 0.5% methylcellulose. The plates were incubated for 72 h at 37° C. and 5% CO2 before they were fixed with methanol and stained with crystal violet to determine the extent of plaque formation.
HCEs were infected with 0.1 MOI HSV-1 K26RFP and treated with tunicamycin (1 μM), thapsigargin (1 μM), Brefeldin-A (1 μM), salubrinal (75 μM) or PBA (10 mM). At 24 hpi, cells were imaged for the presence of fluorescent HSV-1 and cells were lysed and used as inoculum on Vero cells to assess viral titer via plaque assay (FIGS. 3A and 3B). […] HCEs infected and treated with PBA with various concentrations were collected 24 hpi and the lysates from these cells were used as inoculum on Vero cells to determine a concentration dependent viral inhibition via a plaque assay (FIG. 3E).

[4] = tested on: HSV; assay: Viral protein synthesis in HSV infected cells (immunoblotting); conditions: in vitro
Method: Cells were scraped and incubated with 1004 of Radioimmunoprecipitation assay (RIPA) buffer with protease phosphatase inhibitor cocktail (Halt™, 78440) for a period of 30 minutes on ice. Whole cell protein extracts (supernatant) were collected by centrifuging the mixture at 13,500 rpm on a bench top refrigerated (4° C.) centrifuge for 15 minutes. Protein samples were then denatured in NuPAGE LDS Sample Buffer (Invitrogen, NP00007) and 6-mercaptoethanol by heating them to 80° C. for 10 min. The denatured protein samples were allowed to cool and equal amounts of protein were added to 4-12% SDS-PAGE loading gels and run at a constant speed of 70V for 3 h. The protein from the gel was then transferred to a nitrocellulose membrane using an iBlot 2 dry transfer machine (Thermofisher Scientific, USA). Nitrocellulose membrane was blocked in 5% nonfat milk/BSA in tris buffer saline (TBS) and 0.1% tween 20 (TBST) for 1 h at room temperature. After the blocking step, membranes were incubated with primary antibody at dilutions of 1:1000 overnight at 4° C. The following day the blots were washed multiple times with TBST before the addition of horse radish peroxidase conjugated secondary IgG antibody at dilutions of 1:10,000 at room temperature. […] The density of the bands was quantified using ImageQuant TL image analysis software (version: 7). GAPDH was measured as a loading control.

[5] = in vivo; cited from earlier work
[6] = tested on: HSV-1 infected HCEs; assay: Survival and syncytia of HSV-1 infected HCEs in cell culture; type: cell-based, human

## Nc1nc2c(ncn2COCCO)c(=O)[nH]1 [ACV, acyclovir]
[1]
  appearance and behavior of infected mice: look healthier with no behavioral changes
[2]
  renal toxicity: renal toxicity including acute kidney injury

## C[C@H]1CCC/C=C/[C@@H]2C[C@H](O)C[C@H]2[C@H](O)/C=C/C(=O)O1 [BA, Brefeldin-A]
[3]
  viral replication / viral infection in HSV-1 infected HCEs: inhibited viral replication

## O=C([O-])CCCc1ccccc1.[Na+] [NaPBA, sodium 4-phenylbutanoate]
[4]
  viral protein synthesis: suppressed viral protein synthesis

## O=c1[nH]c(=O)n([C@H]2C[C@H](O)[C@@H](CO)O2)cc1C(F)(F)F [TFT, trifluridine]
[5]
  corneal toxicity: corneal toxicity including inflammation, dryness and pain

## C/C=C(/C)C(=O)O[C@H]1C(C)=C2[C@H]([C@@H]1OC(=O)CCCCCCC)[C@@](C)(OC(C)=O)C[C@H](OC(=O)CCC)[C@@]1(O)[C@H]2OC(=O)[C@@]1(C)O [TG, Thapsigargin]
[3]
  viral replication / viral infection in HSV-1 infected HCEs: inhibited viral replication

## O=C(/C=C/c1ccccc1)NC(NC(=S)Nc1cccc2cccnc12)C(Cl)(Cl)Cl (stereo not drawn) [salubrinal]
[6]
  survival of the HSV-1 infected cell: form large syncytia and survive longer in cell culture; also recorded: increased survival of the cell
[3]
  viral replication / viral infection in HSV-1 infected HCEs: increased viral replication

## Tunicamycin [TM]
[3]
  viral replication / viral infection in HSV-1 infected HCEs: inhibited viral replication
